27 molecules from ChEMBL document CHEMBL3593176, “Design and biological evaluation of novel 4-(2-fluorophenoxy)quinoline derivatives bearing an imidazolone moiety as c-Met kinase inhibitors” (Bioorg Med Chem, 2015) can be followed below.

A short description of assay [1]: cells. The note with it: Homo sapiens, NCI-H460, 72 h.
Description: Cytotoxicity against human H460 cells assessed as inhibition of cell proliferation after 72 hrs by MTT assay
The next assay has as its system HT-29. As to the kind of experiment: cells. The following applies: Homo sapiens, HT-29, 72 h.
In a further assay the test system is A549. In words: cells. The following applies: Homo sapiens, A549, 72 h.
A short description of assay [2]: cells. The note with it: Homo sapiens, MKN-45, 72 h.
Description: Cytotoxicity against human MKN45 cells assessed as inhibition of cell proliferation after 72 hrs by MTT assay

Description for A549: Cytotoxicity against human A549 cells assessed as inhibition of cell proliferation after 72 hrs by MTT assay
Description for HT-29: Cytotoxicity against human HT-29 cells assessed as inhibition of cell proliferation after 72 hrs by MTT assay

Consider `COc1cc2c(Oc3ccc(NC(=O)c4c(C)n(-c5ccccc5)c(=O)n4C)cc3F)ccnc2cc1OCCCN1CCCC1`, for which the IC50 – broadly, the point on the concentration scale where inhibition reaches its midpoint – was found to be 1.03 µM in the assay “cells [1]”, 0.94 µM with HT-29, 1.46 µM in the assay with A549 and 0.51 µM in “cells [2]”.

Take `COc1cc2c(Oc3ccc(NC(=O)c4c(C)n(-c5ccc(F)c(Cl)c5)c(=O)n4C)cc3F)ccnc2cc1OCCCN1CCC(C)CC1`: the IC50 in the assay “cells [1]” worked out at 0.25 µM; in the assay with HT-29, 0.2 µM; in the assay with A549 it was 0.43 µM; in “cells [2]”, 0.089 µM.

In the case of `COc1cc2c(Oc3ccc(NC(=O)c4c(C)n(-c5ccc(C)cc5)c(=O)n4C)cc3F)ccnc2cc1OCCCN1CCN(C)CC1`, the IC50 turned out to be 0.51 µM in “cells [1]”, 0.49 µM in the assay with HT-29, 0.83 µM in the assay with A549 and 0.36 µM in the assay “cells [2]”.

With `COc1cc2c(Oc3ccc(NC(=O)c4c(C)n(-c5ccccc5)c(=O)n4C)cc3F)ccnc2cc1OCCCN1CCC(C)CC1`, the IC50 in “cells [1]” turned out to be 0.59 µM; in the assay with HT-29 it was 0.36 µM; with A549, 0.66 µM; in the assay “cells [2]” it was 0.21 µM.

Consider `COc1cc2c(Oc3ccc(NC(=O)c4c(C)n(-c5ccccc5Cl)c(=O)n4C)cc3F)ccnc2cc1OCCCN1CCC(C)CC1`, for which the IC50 is 0.18 µM in “cells [1]”, 0.15 µM in the assay on HT-29, 0.32 µM with A549 and 0.043 µM in “cells [2]”.

As to `COc1cc2c(Oc3ccc(NC(=O)c4c(C)n(-c5ccccc5)c(=O)n4C)cc3F)ccnc2cc1OCCCN1CCN(C)CC1`, the IC50 in the assay “cells [1]” was 0.42 µM; in the assay on HT-29, 0.3 µM; with A549 it was 0.6 µM; in “cells [2]”, 0.19 µM.

`COc1cc2c(Oc3ccc(NC(=O)c4c(C)n(-c5ccc(Cl)cc5)c(=O)n4C)cc3F)ccnc2cc1OCCCN1CCC(C)CC1`: the IC50 in “cells [1]” is 0.2 µM; with HT-29 it was 0.17 µM; in the assay with A549 it was 0.42 µM; in “cells [2]” it was 0.062 µM.

For `COc1cc2c(Oc3ccc(NC(=O)c4c(C)n(-c5ccccc5Cl)c(=O)n4C)cc3F)ccnc2cc1OCCCN1CCN(C)CC1`, the IC50 in “cells [1]” came to 0.13 µM; in the assay with HT-29 it was 0.12 µM; in the assay with A549, 0.31 µM; in the assay “cells [2]”, 0.037 µM.

Regarding `COc1cc2c(Oc3ccc(NC(=O)c4c(C)n(-c5ccc(F)c(F)c5)c(=O)n4C)cc3F)ccnc2cc1OCCCN1CCC(C)CC1`, the IC50 in the assay “cells [1]” was found to be 0.23 µM; with HT-29, 0.23 µM; in the assay on A549, 0.53 µM; in “cells [2]”, 0.095 µM.

Take `COc1cc2c(Oc3ccc(NC(=O)c4c(C)n(-c5ccc(Br)cc5)c(=O)n4C)cc3F)ccnc2cc1OCCCN1CCN(C)CC1`: the IC50 amounted to 0.36 µM in the assay “cells [1]”, 0.29 µM with HT-29, 0.48 µM in the assay with A549 and 0.12 µM in “cells [2]”.

In the case of `COc1cc2c(Oc3ccc(NC(=O)c4c(C)n(-c5ccc(OC(F)(F)F)cc5)c(=O)n4C)cc3F)ccnc2cc1OCCCN1CCC(C)CC1`, the IC50 in “cells [1]” came to 0.59 µM; with HT-29, 0.4 µM; in the assay with A549, 0.62 µM; in “cells [2]”, 0.14 µM.

For `COc1cc2c(Oc3ccc(NC(=O)c4c(C)n(-c5ccc(F)c(F)c5)c(=O)n4C)cc3F)ccnc2cc1OCCCN1CCOCC1`, the IC50 was found to be 0.54 µM in “cells [1]”, 0.39 µM in the assay with HT-29, 0.62 µM with A549 and 0.17 µM in “cells [2]”.

With `COc1cc2c(Oc3ccc(NC(=O)c4c(C)n(-c5ccc(F)c(Cl)c5)c(=O)n4C)cc3F)ccnc2cc1OCCCN1CCN(C)CC1`, the IC50 in the assay “cells [1]” was determined as 0.21 µM; in the assay with HT-29, 0.14 µM; in the assay with A549, 0.38 µM; in the assay “cells [2]”, 0.073 µM.

Turning to `COc1cc2c(Oc3ccc(NC(=O)c4c(C)n(-c5ccccc5)c(=O)n4C)cc3F)ccnc2cc1OCCCN1CCCCC1`, the IC50 in “cells [1]” was 0.65 µM; with HT-29, 0.56 µM; in the assay with A549, 0.79 µM; in “cells [2]” it was 0.24 µM.

Regarding `COc1cc2c(Oc3ccc(NC(=O)c4c(C)n(-c5cccc(C(F)(F)F)c5)c(=O)n4C)cc3F)ccnc2cc1OCCCN1CCN(C)CC1`, the IC50 in the assay “cells [1]” was 0.57 µM; in the assay with HT-29, 0.43 µM; in the assay with A549, 0.77 µM; in the assay “cells [2]” it was 0.2 µM.

`COc1cc2c(Oc3ccc(NC(=O)c4c(C)n(-c5ccc(C)cc5)c(=O)n4C)cc3F)ccnc2cc1OCCCN1CCC(C)CC1`: the IC50 in the assay “cells [1]” is 0.94 µM; with HT-29 it was 0.79 µM; in the assay on A549, 1.12 µM; in the assay “cells [2]” it was 0.43 µM.

Take `COc1cc2c(Oc3ccc(NC(=O)c4c(C)n(-c5ccc(F)c(F)c5)c(=O)n4C)cc3F)ccnc2cc1OCCCN1CCN(C)CC1`: the IC50 is 0.24 µM in the assay “cells [1]”, 0.18 µM in the assay on HT-29, 0.4 µM in the assay with A549 and 0.086 µM in “cells [2]”.

`COc1cc2c(Oc3ccc(NC(=O)c4c(C)n(-c5ccc(F)cc5)c(=O)n4C)cc3F)ccnc2cc1OCCCN1CCN(C)CC1`: the IC50 in “cells [1]” came out at 0.26 µM; in the assay on HT-29, 0.19 µM; with A549 it was 0.43 µM; in “cells [2]”, 0.067 µM.

`COc1cc2c(Oc3ccc(NC(=O)c4c(C)n(-c5ccc(Br)cc5)c(=O)n4C)cc3F)ccnc2cc1OCCCN1CCC(C)CC1`: the IC50 in the assay “cells [1]” amounted to 0.55 µM; in the assay with HT-29 it was 0.28 µM; in the assay with A549, 0.68 µM; in the assay “cells [2]”, 0.16 µM.

Regarding `COc1cc2c(Oc3ccc(NC(=O)c4c(C)n(-c5cccc(C(F)(F)F)c5)c(=O)n4C)cc3F)ccnc2cc1OCCCN1CCC(C)CC1`, the IC50 came out at 0.58 µM in “cells [1]”, 0.52 µM in the assay with HT-29, 0.88 µM in the assay with A549 and 0.32 µM in the assay “cells [2]”.

With `COc1ccc(-n2c(C)c(C(=O)Nc3ccc(Oc4ccnc5cc(OCCCN6CCN(C)CC6)c(OC)cc45)c(F)c3)n(C)c2=O)cc1`, the IC50 in “cells [1]” worked out at 0.69 µM; in the assay with HT-29 it was 0.56 µM; in the assay with A549 it was 0.96 µM; in the assay “cells [2]”, 0.44 µM.

In the case of `COc1cc2c(Oc3ccc(NC(=O)c4c(C)n(-c5ccc(C(F)(F)F)cc5)c(=O)n4C)cc3F)ccnc2cc1OCCCN1CCC(C)CC1`, the IC50 is 0.41 µM in “cells [1]”, 0.36 µM with HT-29, 0.54 µM with A549 and 0.13 µM in the assay “cells [2]”.

Take `COc1ccc(-n2c(C)c(C(=O)Nc3ccc(Oc4ccnc5cc(OCCCN6CCC(C)CC6)c(OC)cc45)c(F)c3)n(C)c2=O)cc1`: the IC50 in the assay “cells [1]” was found to be 0.94 µM; with HT-29 it was 0.79 µM; in the assay on A549, 1.04 µM; in the assay “cells [2]”, 0.49 µM.

As for `COc1cc2c(Oc3ccc(NC(=O)c4c(C)n(-c5ccccc5)c(=O)n4C)cc3F)ccnc2cc1OCCCN1CCOCC1`, the IC50 in “cells [1]” was found to be 0.79 µM; in the assay on HT-29, 0.74 µM; with A549, 0.98 µM; in the assay “cells [2]”, 0.32 µM.

Turning to `COc1cc2c(Oc3ccc(NC(=O)c4c(C)n(-c5ccccc5C(F)(F)F)c(=O)n4C)cc3F)ccnc2cc1OCCCN1CCC(C)CC1`, the IC50 in “cells [1]” came to 0.22 µM; in the assay with HT-29, 0.14 µM; in the assay with A549 it was 0.45 µM; in “cells [2]”, 0.081 µM.

For the molecule `COc1cc2c(Oc3ccc(NC(=O)c4c(C)n(-c5ccc(OC(F)(F)F)cc5)c(=O)n4C)cc3F)ccnc2cc1OCCCN1CCN(C)CC1`, the IC50 in the assay “cells [1]” came to 0.34 µM; in the assay with HT-29, 0.27 µM; with A549, 0.44 µM; in the assay “cells [2]”, 0.12 µM.

For the molecule `COc1cc2c(Oc3ccc(NC(=O)c4c(C)n(-c5ccc(Cl)cc5)c(=O)n4C)cc3F)ccnc2cc1OCCCN1CCN(C)CC1`, the IC50 in the assay “cells [1]” stood at 0.17 µM; in the assay with HT-29, 0.14 µM; with A549, 0.36 µM; in the assay “cells [2]”, 0.058 µM.
